Laboratory results as given in patent US11510928B2, “Use of mirtazapine in the treatment of inflammatory disorders, autoimmune disease and PBC” (UTI Limited Partnership, priority 2017, dated 2022).
Values joined by “and” are separate entries in the source; they are usually repeats but may differ in a detail not shown here. Identical values can stand only once.

Assays:
PBC patients [1] = assay: THIN database cohort study of PBC patients: decompensation, liver transplant and mortality free survival by drug usage; assay type: in vivo, human
Excerpt: We conducted a cohort study using The Health Improvement Network (THIN). THIN is one of the largest medical databases in the UK^8, consisting of prospectively gathered electronic medical records from over 11.1 million patients^8. […] Data from participant general practitioners across the UK is exported to the THIN administrators and database, which is updated every 3 months^11. The THIN database records demographic data and clinical events using Read codes, prescription medications, and laboratory values^12.
We identified patients with PBC Read code “J6160” from April 1974 until May 2007. This cohort was followed until May 2012. We excluded patients having overlap syndrome with autoimmune hepatitis or primary sclerosing cholangitis. The first code of PBC identified in the THIN database was considered the index (ie. diagnosis) date. FIG. 10 provides a flow diagram illustrating the selection of the study population. The primary outcome was the first occurrence of one of the three events following the diagnosis of PBC: (1) decompensation of cirrhosis (ascites, spontaneous bacterial peritonitis, hepatic encephalopathy, hepatorenal syndrome, variceal bleeding, jaundice, or hepatocellular carcinoma); (2) liver transplantation; or (3) death.
Read codes were used to identify patients with chronic depression disorder. Chronic depression was defined as follows: (1) never diagnosed with chronic depression; (2) past depression diagnosis prior to 90 days from PBC diagnosis; and (3) current depression diagnosis if a diagnosis was made within 90 days before or after a PBC diagnosis. Using THIN database therapy files, we assessed the impact of anti-depressant medications on outcomes of PBC patients (mortality, decompensation, and liver transplant).
For each anti-depressant medication, use was defined as follows: (1) never used the medication; (2) past use as defined as a previous code for medication use prior to 90 days of PBC diagnosis; and (3) current medication user if the medication code was identified within 90 days before or after a PBC diagnosis. We assessed the effect of each anti-depressant medication on study outcomes separately. Antidepressants were classified as typical or atypical and stratified accordingly. Atypical antidepressants include: Agomelatine, Bupropion and Mirtazapine. While typical antidepressants include the following groups: (a) Selective Serotonin Reuptake Inhibitors (SSRI): Citalopram, Escitalopram, Fluoxetine, Fluvoxamine, Paroxetine and Sertraline; (b) […] (SNRI): Desvenlafaxine, Duloxetine, Minacipran and Venlafaxine; (c) Serotonin modulators: Nefazodone, Trazodone and Vilazodone; (d) Tricyclics and tetracyclics: Amitriptyline, Amoxapine, Clomipramine, Desipramine, Doxepin, Imipramine, Maprotiline, Nortriptyline and Protriptyline, Trimiprramine; (e) Monamine oxidase inhibitors: Isocarboxazid, Phenelzine, Selegiline and Tranylcypromine.
We assessed age at diagnosis of PBC, sex, and the presence of coexisting liver disease (ie. chronic hepatitis either viral, alcoholic, or fatty liver disease; yes/no). Smoking status was classified (current, former, never smoked, or unknown status) at the time of PBC diagnosis, alcohol consumption was classified (current, former, never consumed alcohol, or unknown status) at PBC diagnosis. Ursodeoxycholic acid (UDCA) usage (ever/never recorded) was also determined.
In our primary analysis, we assessed demographic, clinical, and medication variables in the PBC cohort according to depression status. Where appropriate, we used the Fisher Exact test or Chi-Square test for categorical data, and the Kruskal-Wallis or Student's t-test for continuous data. Univariate analysis using Log Rank test and multivariate Cox Proportional Regression models were used to assess the impact of depression or anti-depressant medications on PBC outcomes as defined by death, decompensated cirrhosis, or liver transplant. […]

PBC patients [2] = conditions: human, in vivo; listed as UDCA; cited from earlier work
[3] = URSO usage (ever/never recorded)

Compound | Univariate HR, 10-year decompensation, liver transplant and mortality free survival (PBC patients [1]; current usage vs none) | Univariate HR, 10-year decompensation, liver transplant and mortality free survival (PBC patients [1]; usage prior to PBC diagnosis vs none) | Multivariate model-1 HR (PBC patients [1]; [3]) | Multivariate model-2 HR (PBC patients [1]; [3]) | Univariate HR, 10-year decompensation, liver transplant and mortality free survival (PBC patients [1]; [3]) | Patients with PBC who do not fully respond to treatment (PBC patients [2])
CNCCC(Oc1ccc(C(F)(F)F)cc1)c1ccccc1 (stereo not drawn) [Fluoxetine] | 0.58 | 0.83 | – | – | – | –
C[C@H](CCC(=O)O)[C@H]1CC[C@H]2[C@@H]3[C@@H](O)C[C@@H]4C[C@H](O)CC[C@]4(C)[C@H]3CC[C@]12C [URSO, ursodeoxycholic acid] | – | – | 1.00 | 1.00 | 0.80 | 30% to 40% and 30-40%
